# Data reported in ChEMBL document CHEMBL1201862, “PubChem BioAssay data set” (2004).
#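 48-hour exposure; five concentrations; linearly interpolated endpoints. GI50 marks 50% less growth.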 The source made the active and inactive calls. Rule as the data show it: active = GI50 up to about 1.1 µM and inactive = higher.
# Legend:
# Assay in all cases: growth of human tumour cells (NCI), 48 h
# [1] = tested on: 786-0
# [2] = tested on: A498
# [3] = tested on: ACHN
# [4] = tested on: COLO 205
# [5] = tested on: DU-145
# [6] = tested on: HT-29
# [7] = tested on: Hs-578T
# [8] = tested on: KM12
# [9] = tested on: MDA-MB-231
# [10] = tested on: MDA-MB-435
# [11] = tested on: MDA-N
# [12] = tested on: NCI-H226
# [13] = tested on: OVCAR-4
# [14] = tested on: SF-268
# [15] = tested on: SK-MEL-28
# [16] = tested on: SN12C
# [17] = tested on: SR
# [18] = tested on: U-251
# [19] = tested on: UACC-62
SMILES,GI50 [1],GI50 [2],GI50 [3],GI50 [4],GI50 [5],GI50 [6],GI50 [7],GI50 [8],GI50 [9],GI50 [10],GI50 [11],GI50 [12],GI50 [13],GI50 [14],GI50 [15],GI50 [16],GI50 [17],GI50 [18],GI50 [19]
Nc1ncnc2c1ncn2CCCCC(=O)O,> 100 µM (inactive),> 100 µM (inactive),> 100 µM (inactive),> 100 µM (inactive),> 100 µM (inactive),> 100 µM (inactive),> 100 µM (inactive),> 100 µM (inactive),> 100 µM (inactive),> 100 µM (inactive),> 100 µM (inactive),> 100 µM (inactive),> 100 µM (inactive),> 100 µM (inactive),> 100 µM (inactive),> 100 µM (inactive),> 100 µM (inactive),> 100 µM (inactive),> 100 µM (inactive)
COc1ccc2oc(=N)c(C(=O)Nc3ccccc3)cc2c1,3.09 µM (inactive),17.1 µM (inactive),13.7 µM (inactive),30.1 µM (inactive),33.7 µM (inactive),64.6 µM (inactive),15 µM (inactive),24.7 µM (inactive),23.4 µM (inactive),15.3 µM (inactive),18.5 µM (inactive),31.1 µM (inactive),45.6 µM (inactive),20.6 µM (inactive),30 µM (inactive),36.2 µM (inactive),7.11 µM (inactive),19.1 µM (inactive),
CC(C)C1=C(Cc2ccccc2)C(=O)O/C1=C\c1cc(Cl)c(O)c(Cl)c1,17.1 µM (inactive),23.7 µM (inactive),17.3 µM (inactive),17.4 µM (inactive),16 µM (inactive),16.9 µM (inactive),21.8 µM (inactive),16.7 µM (inactive),16.9 µM (inactive),17.3 µM (inactive),18.3 µM (inactive),20.3 µM (inactive),15.6 µM (inactive),22.6 µM (inactive),18.5 µM (inactive),17.2 µM (inactive),21.8 µM (inactive),17.7 µM (inactive),16.9 µM (inactive)
COCC1OC(OC2OCC3OC4(OCC(O)(C(C)OC)C5OCOC54)OC3C2OC)C(OC)C(O)C1OC1OC(C)C(OC)C(OC2OC(C)C3OC4(CC(O)C(OC5CC(OC6CC(C)([N+](=O)[O-])C(OC)C(C)O6)C(OC(=O)c6c(C)c(Cl)c(O)c(Cl)c6OC)C(C)O5)C(C)O4)OC3(C)C2O)C1O (configuration not stated),> 100 µM (inactive),> 100 µM (inactive),> 100 µM (inactive),> 100 µM (inactive),> 100 µM (inactive),> 100 µM (inactive),> 100 µM (inactive),> 100 µM (inactive),> 100 µM (inactive),> 100 µM (inactive),> 100 µM (inactive),> 100 µM (inactive),> 100 µM (inactive),> 100 µM (inactive),> 100 µM (inactive),> 100 µM (inactive),> 100 µM (inactive),> 100 µM (inactive),> 100 µM (inactive)
Clc1ccc(CCN[C@H]2CCCC[C@H]2N2CCCC2)cc1Cl,24 µM (inactive),15.8 µM (inactive),38.6 µM (inactive),13.6 µM (inactive),21.8 µM (inactive),9.1 µM (inactive),39.6 µM (inactive),17.2 µM (inactive),25.6 µM (inactive),18.5 µM (inactive),16.2 µM (inactive),21.1 µM (inactive),21.5 µM (inactive),32.2 µM (inactive),28.9 µM (inactive),20.2 µM (inactive),28.7 µM (inactive),43.7 µM (inactive),17.8 µM (inactive)
Cc1c(C)c2c(c(N)c1C#N)C(=O)N(CCc1ccccc1)C2=O,> 100 µM (inactive),> 100 µM (inactive),> 100 µM (inactive),> 100 µM (inactive),> 100 µM (inactive),,> 100 µM (inactive),> 100 µM (inactive),> 100 µM (inactive),> 100 µM (inactive),> 100 µM (inactive),> 100 µM (inactive),> 100 µM (inactive),> 100 µM (inactive),> 100 µM (inactive),> 100 µM (inactive),38.5 µM (inactive),> 100 µM (inactive),> 100 µM (inactive)
COc1ccccc1C[C@@H]1OC2(C=CC(=O)CC2SC(=O)c2ccccc2)O[C@H]1Cc1ccccc1OC (some centres not stated),0.275 µM (active),2.46 µM (inactive),1.51 µM (inactive),1.69 µM (inactive),3.78 µM (inactive),1.65 µM (inactive),1.25 µM (inactive),2.48 µM (inactive),2.64 µM (inactive),1.94 µM (inactive),1.51 µM (inactive),2.08 µM (inactive),1.33 µM (inactive),1.02 µM (active),1.75 µM (inactive),2.52 µM (inactive),0.308 µM (active),1.44 µM (inactive),2.71 µM (inactive)
CC(=O)OC[C@H]1On2nnnc2[C@H](OC(C)=O)[C@@H](OC(C)=O)[C@@H]1OC(C)=O,> 100 µM (inactive),> 100 µM (inactive),> 100 µM (inactive),> 100 µM (inactive),> 100 µM (inactive),> 100 µM (inactive),> 100 µM (inactive),> 100 µM (inactive),> 100 µM (inactive),> 100 µM (inactive),> 100 µM (inactive),> 100 µM (inactive),> 100 µM (inactive),> 100 µM (inactive),> 100 µM (inactive),> 100 µM (inactive),> 100 µM (inactive),> 100 µM (inactive),> 100 µM (inactive)
CN(C)CCNC(=O)c1cccc2c(NCCN(C)C)c3ccccc3nc12,1.7 µM (inactive),1.94 µM (inactive),1.76 µM (inactive),1.92 µM (inactive),3.82 µM (inactive),1.61 µM (inactive),2.66 µM (inactive),2.79 µM (inactive),2 µM (inactive),2.94 µM (inactive),3.15 µM (inactive),1.37 µM (inactive),2.49 µM (inactive),3.07 µM (inactive),13.7 µM (inactive),1.73 µM (inactive),0.982 µM (active),2.69 µM (inactive),4.55 µM (inactive)
CC1Cc2c(Br)nc(N)nc2NC1=O (configuration not stated),> 100 µM (inactive),> 100 µM (inactive),> 100 µM (inactive),> 100 µM (inactive),> 100 µM (inactive),> 100 µM (inactive),> 100 µM (inactive),> 100 µM (inactive),> 100 µM (inactive),> 100 µM (inactive),> 100 µM (inactive),> 100 µM (inactive),> 100 µM (inactive),> 100 µM (inactive),> 100 µM (inactive),> 100 µM (inactive),86.3 µM (inactive),> 100 µM (inactive),> 100 µM (inactive)
O=C1c2c(Br)sc(Br)c2[C@H]2OC(=S)N[C@@H]12,11.3 µM (inactive),18.3 µM (inactive),4.45 µM (inactive),2.51 µM (inactive),12.8 µM (inactive),2 µM (inactive),11.8 µM (inactive),14.4 µM (inactive),12.1 µM (inactive),2.96 µM (inactive),5.04 µM (inactive),17.1 µM (inactive),6.07 µM (inactive),3.27 µM (inactive),2.79 µM (inactive),3.21 µM (inactive),1.67 µM (inactive),2.78 µM (inactive),11.8 µM (inactive)
Cc1n[nH]c(=O)c2cc(-c3ccccc3)[nH]c12,> 100 µM (inactive),25.9 µM (inactive),32.8 µM (inactive),27.7 µM (inactive),94.8 µM (inactive),33.2 µM (inactive),26.4 µM (inactive),88.5 µM (inactive),40.8 µM (inactive),51.9 µM (inactive),73.3 µM (inactive),72.9 µM (inactive),52.6 µM (inactive),59.7 µM (inactive),,75.3 µM (inactive),46.8 µM (inactive),51.2 µM (inactive),33.8 µM (inactive)
COc1ccc2c(-c3csc(-c4c[nH]c5ccccc45)n3)c[nH]c2c1,5.53 µM (inactive),8.65 µM (inactive),5.48 µM (inactive),6.59 µM (inactive),9.18 µM (inactive),2.34 µM (inactive),12.5 µM (inactive),3.21 µM (inactive),5.2 µM (inactive),13.8 µM (inactive),8.73 µM (inactive),9.4 µM (inactive),11 µM (inactive),4.14 µM (inactive),14.6 µM (inactive),7.57 µM (inactive),1.56 µM (inactive),5.19 µM (inactive),11.5 µM (inactive)
CCOC(=O)Nn1c(C)nnc1-c1ccccc1,> 100 µM (inactive),> 100 µM (inactive),> 100 µM (inactive),> 100 µM (inactive),> 100 µM (inactive),> 100 µM (inactive),> 100 µM (inactive),> 100 µM (inactive),> 100 µM (inactive),> 100 µM (inactive),> 100 µM (inactive),> 100 µM (inactive),> 100 µM (inactive),> 100 µM (inactive),,> 100 µM (inactive),> 100 µM (inactive),> 100 µM (inactive),> 100 µM (inactive)
